Results published in ChEMBL document CHEMBL1201862, “PubChem BioAssay data set” (2004).
Values belong to the molecule of their own block, whether it stands above or below them. Calls of active or inactive are those of the source.

Experiments:
[1] = HIV-1 Vif–A3G interaction blockers – biochemical, TR-FRET, GST-Vif 1-94, biotin-A3G peptide, dose response retest, primary screen (AID 1117319); type: functional;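 note: TR-FRET signal of purified GST-Vif binding a biotinylated A3G peptide; inhibitors lower the FRET signal by blocking Vif and A3G binding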
[2] = HGIII-sPLA2 enzyme inhibition potency – biochemical, QFRET, IC50, dose response (AID 743457);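 note: green fluorescence rise as the enzyme cleaves BODIPY PC-A2 in liposomes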
[3] = antimalarial activity against Dd2 parasites – SYBR Green fluorescence, erythrocytes, dry powder, set 2, dose response (AID 1159574); type: functional, cell-based
[4] = OVCAR-3 cell viability loss – plate reader, dry powder samples, PAX8 inhibitor project, dose response (AID 743044); type: functional, cell-based
[5] = OVCAR8 cell viability loss – plate reader, dry powder samples, PAX8 project, dose response (AID 743197); type: functional, cell-based; details: OVCAR-8
Paired box protein Pax-8 = Paired box protein Pax-8 (Homo sapiens, UniProt Q06710); experiment: PAX8 transcriptional activity inhibition in RMG-I – RMG-I cells, luciferase, cherry-pick, dose response (AID 687027); type: functional, cell-based;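 note: luciferase reporter driven by Pax8 target thyroperoxidase promoter measured by SteadyGlo luminescence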
Chain of Paired box protein Pax-8 (Q06710 whole entry): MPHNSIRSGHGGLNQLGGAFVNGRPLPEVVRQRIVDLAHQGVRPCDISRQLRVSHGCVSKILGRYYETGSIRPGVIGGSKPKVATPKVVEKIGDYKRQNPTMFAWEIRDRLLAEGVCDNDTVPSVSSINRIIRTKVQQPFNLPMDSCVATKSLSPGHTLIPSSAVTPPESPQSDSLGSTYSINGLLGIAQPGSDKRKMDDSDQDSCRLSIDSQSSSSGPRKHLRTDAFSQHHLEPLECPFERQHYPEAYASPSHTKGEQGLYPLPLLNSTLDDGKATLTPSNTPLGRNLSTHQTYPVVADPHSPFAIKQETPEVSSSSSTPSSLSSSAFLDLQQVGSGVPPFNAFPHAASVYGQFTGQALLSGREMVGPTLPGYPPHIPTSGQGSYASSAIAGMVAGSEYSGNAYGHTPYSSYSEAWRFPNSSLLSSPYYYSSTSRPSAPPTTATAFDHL

[6] = general cell-killing toxicity readout – plate reader, dry powder samples, cytotoxicity control for PAX8 inhibitor project, dose response (AID 743021); type: functional, cell-based
[7] = target: DNA dC->dU-editing enzyme APOBEC-3G (Homo sapiens, UniProt Q9HC16); experiment: Dose Response confirmation of small molecule APOBEC3G DNA Deaminase Inhibitors via a fluorescence-based single-stranded DNA deaminase assay. [Related pubchem assays (depositor defined):AID493012, AID493028]; type: functional
Chain of DNA dC->dU-editing enzyme APOBEC-3G (Q9HC16 whole entry): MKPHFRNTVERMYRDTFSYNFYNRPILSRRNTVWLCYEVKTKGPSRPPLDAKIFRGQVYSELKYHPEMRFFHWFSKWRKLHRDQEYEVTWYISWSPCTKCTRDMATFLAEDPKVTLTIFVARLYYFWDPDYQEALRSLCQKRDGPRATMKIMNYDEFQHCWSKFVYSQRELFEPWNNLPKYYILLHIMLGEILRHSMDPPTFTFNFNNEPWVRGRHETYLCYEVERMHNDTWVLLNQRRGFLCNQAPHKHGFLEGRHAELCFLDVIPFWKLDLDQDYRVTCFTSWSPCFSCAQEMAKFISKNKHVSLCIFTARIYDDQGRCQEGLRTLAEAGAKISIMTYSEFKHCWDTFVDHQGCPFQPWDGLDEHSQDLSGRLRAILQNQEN

[8] = target: DNA dC->dU-editing enzyme APOBEC-3A (Homo sapiens, UniProt P31941); experiment: A3A deaminase inhibition for selectivity – biochemical, dose response (AID 504722); type: functional
Chain of DNA dC->dU-editing enzyme APOBEC-3A (P31941 whole entry): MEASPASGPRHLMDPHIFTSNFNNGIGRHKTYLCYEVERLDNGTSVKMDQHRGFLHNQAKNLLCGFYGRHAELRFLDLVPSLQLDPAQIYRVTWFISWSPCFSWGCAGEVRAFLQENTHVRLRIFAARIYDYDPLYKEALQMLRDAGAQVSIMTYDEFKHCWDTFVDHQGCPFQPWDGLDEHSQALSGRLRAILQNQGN

[9] = SNU-C1 cell viability reduction, dose response, CellTiter-Glo luminescence (AID 1117323); type: functional, cell-based
[10] = HCT116 cell viability decrease, GSK3B pretreatment – CellTiter-Glo, IC50, dose response (AID 1117339); type: functional; details: HCT-116
[11] = cytotoxicity toward HCT116 cells – cell-based, CellTiter-Glo luminescence, IC50, dose response (AID 1117332); type: functional; details: HCT-116
[12] = CellTiter-Glo luminescence survival assay, SW480 colon tumor line, concentration-response curve, half-maximal inhibitory concentration (AID 1117338); type: functional
[13] = cytotoxicity toward Colo320 cells – cell-based, CellTiter-Glo luminescence, IC50, dose response (AID 1117334); type: functional; details: COLO 320
[14] = cytotoxicity toward HT-29 cells – cell-based, CellTiter-Glo luminescence, IC50, dose response (AID 1117330); type: functional
[15] = Reduced DLD-1 viability, concentration-response, CellTiter-Glo luminescence (AID 1117352); type: functional
[16] = RKO cell viability reduction, dose response, CellTiter-Glo luminescence (AID 1117322); type: functional
[17] = rise of 2N DNA cells, HeLa – IC50, dose response (AID 1117349); type: functional, cell-based
[18] = rise of 4N DNA cells, HeLa – IC50, dose response (AID 1117351); type: functional, cell-based
[19] = Late stage assay provider results from the probe development effort to identify selective inhibitors of heat shock protein 90 (HSP90): Absorbance-based cell proliferation assay in MCF7 cells.; type: functional
[20] = Late stage assay provider results from the probe development effort to identify selective inhibitors of heat shock protein 90 (HSP90): Absorbance-based cell proliferation assay in SKBR3 cells.; type: functional; details: SK-BR-3

- IC50 [1]: > 100 µM (active)
Compound: CCOc1ccc(N/C([S-])=C(/C(=O)c2ccc(C)c([N+](=O)[O-])c2)[n+]2ccccc2)cc1

- IC50 [2]: > 122 µM (inactive)
Compound: Cc1cccc(NN=C(S)Nc2c(C)cccc2C)c1

Compound: COc1ccc(NC(=O)N2CCCCN3[C@H](C2)[C@@H](c2ccc(C#Cc4ccccc4)cc2)[C@@H]3CO)cc1
- AC50 [3]: 2.1 µM (active)
- AC50 [4]: 58.4 µM (active)
- AC50 [5]: 39.7 µM (active)
- AC50 (Paired box protein Pax-8): 5.67 µM (active)
- AC50 [6]: 29.7 µM (active)

Compound: CCn1c(S)nnc1-c1cc2c(C(F)(F)F)nn(C)c2s1
- IC50 [7]: 3.06 µM (active)
- IC50 [2]: > 122 µM (inactive)
- IC50 [8]: > 100 µM (inactive)

Compound: C[C@H](O)CN(C)C
- IC50 [9]: > 20 µM (inactive)
- IC50 [10]: > 20 µM (inactive)
- IC50 [11]: > 20 µM (inactive)
- IC50 [12]: > 20 µM (inactive)
- IC50 [13]: > 20 µM (inactive)
- IC50 [14]: > 20 µM (inactive)
- IC50 [15]: > 20 µM (inactive)
- IC50 [16]: > 20 µM (inactive)

Compound: CCCCCCCCCCCC[N+](C)(C)Cc1ccccc1
- IC50 [9]: 0.02 µM (active)
- IC50 [10]: > 20 µM (inactive)
- IC50 [17]: > 10 µM (inactive)
- IC50 [11]: 1.96 µM (active)
- IC50 [12]: 7.95 µM (inactive)
- IC50 [13]: 8.99 µM (inactive)
- IC50 [14]: 0.465 µM (active)
- IC50 [18]: > 10 µM (inactive)
- IC50 [15]: 0.738 µM (active)
- IC50 [16]: 3.07 µM (active)

Compound: COc1ccc2cc(Br)c(=O)oc2c1
- IC50 [19]: > 100 µM (inactive)
- IC50 [20]: > 100 µM (inactive)

Compound: CCOc1cn(C)c(C(=O)Nc2ccccc2)cc1=O
- IC50 [19]: > 100 µM (inactive)
- IC50 [20]: > 100 µM (inactive)
